Test results as given in patent publication US5834259A, “Process and composition for preparing D-aspartic acid” (Monsanto Company, priority 1996, dated 1998).

Target: T1, L-aspartate-α-decarboxylase (Escherichia coli, UniProt P0A790)
T1 construct: expressed in transfected cells; host or cells: E. coli W3110 transformed with pIF309 = strain NS3291 (ATCC 98675), whole cells
Assay: Activity towards D/L-glutamate and D/L-alanine, D/L-aspartate as control (Example 8)
Assay type: biochemical, E. coli K12
Conditions: racemate substrate, pH 7.0
Experimental: D/L-aspartate was run as a control.
Substrates were prepared by dissolving solid amino acid racemate in approximately 75 ml deionized H2 O and adjusting the pH to 7.0 with 10N NaOH. The volume was then brought to 100 ml with deionized H2 O. The cells used were stored frozen for about 1 month and then thawed and stored in a refrigerator for about 1 month prior to running the experiments.
The reaction was run the same as described in the prior Examples. Samples of supernatant fluid, approximately 0.20 ml, were removed over time, centrifuged and stored frozen before analysis by HPLC as described in the prior Examples.

SMILES: C[C@@H](N)C(=O)O [D-Ala]
- concentration in supernatant fluid (0 hr): 19.190 mg/mL
- concentration in supernatant fluid (3.5 hr): 18.590 mg/mL
- percent remaining (3.5 hr): 96.873%
- concentration in supernatant fluid (8.5 hr): 18.370 mg/mL
- percent remaining (8.5 hr): 95.727%
- concentration in supernatant fluid (24 hr): 17.930 mg/mL
- percent remaining (24 hr): 93.434%
- concentration in supernatant fluid (55 hr): 17.580 mg/mL
- percent remaining (55 hr): 91.610%

SMILES: N[C@H](CCC(=O)O)C(=O)O [D-Glu]
- concentration in supernatant fluid (0 hr): 29.440 mg/mL
- concentration in supernatant fluid (3.5 hr): 29.010 mg/mL
- percent remaining (3.5 hr): 98.539%
- concentration in supernatant fluid (8.5 hr): 29.520 mg/mL
- percent remaining (8.5 hr): 100.27%
- concentration in supernatant fluid (24 hr): 29.350 mg/mL
- percent remaining (24 hr): 99.694%
- concentration in supernatant fluid (55 hr): 29.840 mg/mL
- percent remaining (55 hr): 101.36%

SMILES: C[C@H](N)C(=O)O [L-Ala]
- concentration in supernatant fluid (0 hr): 19.320 mg/mL
- concentration in supernatant fluid (3.5 hr): 18.960 mg/mL
- percent remaining (3.5 hr): 98.137%
- concentration in supernatant fluid (8.5 hr): 18.730 mg/mL
- percent remaining (8.5 hr): 96.946%
- concentration in supernatant fluid (24 hr): 18.320 mg/mL
- percent remaining (24 hr): 94.824%
- concentration in supernatant fluid (55 hr): 17.830 mg/mL
- percent remaining (55 hr): 92.288%

SMILES: N[C@@H](CCC(=O)O)C(=O)O [L-Glu]
- concentration in supernatant fluid (0 hr): 29.350 mg/mL
- concentration in supernatant fluid (3.5 hr): 28.400 mg/mL
- percent remaining (3.5 hr): 96.763%
- concentration in supernatant fluid (8.5 hr): 28.740 mg/mL
- percent remaining (8.5 hr): 97.922%
- concentration in supernatant fluid (24 hr): 28.200 mg/mL
- percent remaining (24 hr): 96.082%
- concentration in supernatant fluid (55 hr): 28.000 mg/mL
- percent remaining (55 hr): 95.400%
